{"source": "patent US10780069B2", "about": "“Use of GC-1 in transplant related population” (University of Pittsburgh—Of the Commonwealth System of …, priority 2017, dated 2020)", "key": {"hepatocytes [1]": {"test_system": "hepatocytes", "assay": "T3- or GC-1-supplemented diet in wild type mice: hepatocyte proliferation", "assay_type": "in vivo", "protocol": "All studies on mice were performed in strict accordance with Guidelines. Eight-week old male C57BL/6 male mice (Jackson/Charles River) were maintained on a standard laboratory basal diet (Test Diet) (n=4), or fed a T3-supplemented diet (4 mg/Kg of diet, Sigma Chemicals, St. Louis Mo.) (n=4). GC-1 was administered to the eight week-old male C57BL/6 male mice either via GC-1-supplemented diet (5 mg/Kg of diet, Medchem Express) for 8 days (n=4) or via daily intraperitoneal injections (IP) of GC-1 dissolved in DMSO (0.3 mg/kg/dose) for 8 days (n=7). As a control group for injections, DMSO alone was injected daily intraperitoneal (IP) for 8 days (n=5). Mice were sacrificed 24 hours after the last injection.\nTo label dividing hepatocytes, BrdU (5-bromodeoxyuridine) dissolved in drinking water (1 mg/ml) was given to all animals throughout the experiment period. The animals were given food and water ad libitum with a 12-hour light/dark daily cycle.\nFour micron liver sections were analyzed by immunohistochemistry for β-Catenin (BD Biosciences, San Jose, Calif.), Cyclin-D1 (Thermo-Scientific, Fremont, Calif.) and PCNA (Santa Cruz Biotechnology, Dallas, Tex.). Briefly, formalin-fixed sections were deparaffinized in graded xylene and alcohol. Endogenous peroxidase was inactivated using 3% hydrogen peroxide (Sigma). For β-Catenin, Cyclin-D1 staining, slides were microwaved in Citrate buffer followed by blocking with Superblock for 10 minutes. Sections were then incubated with secondary anti-mouse (for β-catenin) or anti-rabbit (for Cyclin-D1) horseradish peroxidase-conjugated antibody for 30 minutes.\nBromodeoxyuridine (BrdU) was stained with mouse antibody (Becton Dickinson) as previously described (Fanti et al. (2014) Hepatology 59, 2309-2320). Briefly, tissue sections were deparaffinized, exposed to 0.3% hydrogen peroxide in deionized water for 10 minutes to block endogenous peroxidase, treated with 2N HCl, incubated with trypsin 0.1% for 20 minutes and then with normal goat serum for 20 minutes at room temperature. Sections were then incubated overnight in cold room with anti-BrdU monoclonal antibody, followed by biotinylated goat anti-mouse IgG. DAB kit was then applied, and sections were counterstained with hematoxylin. A small segment of intestine was included from each mouse as a positive control for the staining. For quantification of BrdU staining, at least 10 high power fields (400× or 600×) fields each from at least three biological replicates were counted as indicated in the figures. Statistical analysis was performed as described below."}, "hepatocytes [2]": {"test_system": "hepatocytes", "assay": "T3 or GC-1 in LRP5-6 LKO mice and littermate controls", "assay_type": "in vivo", "protocol": "Eight to 10 week-old LRP5-6-LKO were obtained from breeding homozygous LRP5-6 double floxed mice with albumin-cre transgenic mice as described previously (Yang et al. (2014) Hepatology 60, 964-976). LRP5-6-LKO or sex matched littermate controls were given either T3-supplemented diet (n=4), basal diet (n=3), IP GC-1 (n=3) or IP DMSO (n=3). Mice were sacrificed at 24 hours after the last IP injection.\nTo label dividing hepatocytes, BrdU (5-bromodeoxyuridine) dissolved in drinking water (1 mg/ml) was given to all animals throughout the experiment period. The animals were given food and water ad libitum with a 12-hour light/dark daily cycle. […]\nProtein extraction from frozen liver tissue and western blot analysis were performed as previously described (Fanti et al., (2014) Hepatology 59, 2309-2320). For protein extraction, a small amount of frozen liver tissue was obtained (over dry ice) and was homogenized using RIPA buffer with protease and phosphatase inhibitor cocktail (Sigma, St. Louis, Mo.). Samples were transferred to a 1.5 ml tube on ice, and spun in cold room centrifuge at 14,000 RPM for 5 minutes. Pellet was then discarded and sample was aliquoted and stored at −80 C for use. Fifty micrograms of the proteins were resolved by sodium dodecyl sulfate-polyacrylamide gel electrophoresis analysis, and transferred to immobilon-polyvinylidene difluoride membranes.\nThe primary antibodies used were against β-catenin (BD Biosciences); pSer675-β-catenin, pSer552-β-catenin, Active-β-catenin (Cell-Signaling), Cyclin-D1 (Thermo-Scientific), and β-Actin (Sigma). Dilutions of primary antibody were done according to manufacturer recommendations (1:1000 for all except Cyclin-D1 which was 1:200). Horseradish peroxidase-conjugated secondary antibodies used were goat anti-mouse (1:20,000) and goat anti-rabbit (1:10,000) (Millipore). The proteins were detected by Super-Signal West Pico Chemiluminescense Substrate (Thermo Scientific, Rockford Ill.) and visualized by autoradiography. […]"}, "[3]": {"test_system": "β-catenin-TCF4 reporter activity in Hep3B cells (wild-type CTNNB1)", "assay": "TopFlash reporter assay in Hep3B cells", "assay_type": "cell-based, human", "settings": "7 μM GC-1 (methods: 5-7 μM, 24 hours), vs DMSO", "from_the_text": "(§1) Three liver tumor cell lines Hep3B, HepG2 and Snu-398 cells were obtained from ATCC (Manassas, Va.). Cells were transfected simultaneously with Renilla reniformis luciferase (pRL-TK; Promega, Madison, Wis.) as a transfection control and TopFlash firefly luciferase plasmids (Upstate Biotechnology, Lake Placid, N.Y.), which contains three copies of the Tcf/Lef sites upstream of a thymidine kinase (TK) promoter and the firefly luciferase gene using Lipofectamine 2000 (Life Technologies). Twenty-four hours after transfection, cells were treated with either DMSO (Fisher Scientific) or 5-7 μM GC-1 (Medchem Express, Monmouth Junction, N.J.) for 24 hours. Lysates were harvested using the Dual-Luciferase Reporter Assay System (Promega, Madison, Wis.). Firefly luciferase signals were normalized to Renilla luciferase and ratio between groups compared by student's t-test to determine significance. P<0.05 was considered significant."}, "[4]": {"test_system": "β-catenin-TCF4 reporter activity in HepG2 cells (exon-3-deletion mutant of CTNNB1)", "assay": "TopFlash reporter assay in HepG2 cells", "assay_type": "cell-based, human", "settings": "(methods: 5-7 μM, 24 hours), vs DMSO", "from_the_text": "as §1"}, "hepatocytes [5]": {"test_system": "hepatocytes", "assay": "GC-1 or T3 in hepatocyte specific β-catenin knockout mice (β-Cat LKO) and littermate controls", "assay_type": "in vivo", "settings": "control mice, GC-1 treated vs basal diet"}}, "note": "Entries after “also recorded” stand apart in the source; their conditions may differ."}
{"smiles": "Cc1cc(OCC(=O)O)cc(C)c1Cc1ccc(O)c(C(C)C)c1", "note": "[GC-1, Sobetirome]", "values": [{"measurement": "hepatocyte proliferation relative to T3", "setting": "hepatocytes [1]; GC-1 diet versus T3 diet, 8 days", "result": "modestly less extent than T3"}, {"measurement": "BrdU incorporation", "setting": "hepatocytes [1]; T3 (4 mg/Kg of diet) or GC-1 (5 mg/Kg of diet) chow 8 days, vs basal diet", "result": "increased BrdU incorporation"}, {"measurement": "cyclin-D1 staining in hepatocytes", "setting": "hepatocytes [1]; T3 diet or IP GC-1, 8 days, vs respective controls", "result": "notably increased cyclin-D1 staining"}, {"measurement": "cyclin-D1 staining in hepatocytes", "setting": "hepatocytes [1]; T3 or GC-1 supplemented diet 8 days, vs basal diet", "result": "increased in both groups"}, {"measurement": "BrdU-positive hepatocytes, T3 diet versus IP GC-1", "setting": "hepatocytes [1]; T3 supplemented diet versus IP GC-1, 8 days, p<0.001 between groups", "result": "overall fewer number of BrdU-positive hepatocytes"}, {"measurement": "pSer675-β-catenin levels, Western blot", "setting": "hepatocytes [2]; LRP5-6-LKO and littermate controls", "result": "comparable or even greater levels"}, {"measurement": "pSer552-β-catenin levels, Western blot", "setting": "hepatocytes [2]; LRP5-6 LKO", "result": "modest increase"}, {"measurement": "active β-catenin levels", "setting": "hepatocytes [2]; LRP5-6 LKO after T3 or GC-1 feeding vs basal diet", "result": "no notable differences"}, {"measurement": "cyclin-D1 protein and mRNA expression", "setting": "hepatocytes [2]; LRP5-6 LKO vs controls", "result": "decreased"}, {"measurement": "numbers of cyclin-D1-positive hepatocytes (immunohistochemistry)", "setting": "hepatocytes [2]; LRP5-6 LKO vs controls", "result": "notably decreased"}, {"measurement": "total β-catenin levels", "setting": "hepatocytes [2]; LRP5-6 LKO vs controls", "result": "comparable levels"}, {"measurement": "number of BrdU-labeled hepatocyte nuclei", "setting": "hepatocytes [2]; LRP5-6 LKO vs controls, T3 diet 4 mg/Kg of diet or GC-1 0.3 mg/Kg/dose IP 8 days", "result": "notable decrease"}, {"measurement": "active β-catenin levels in liver lysates", "setting": "hepatocytes [2]; control mice fed T3 or GC-1 diet for 8 days vs basal diet", "result": "dramatic increase"}, {"measurement": "TopFlash luciferase reporter activity", "setting": "[3]", "result": "no significant effect; also recorded: insignificant differences"}, {"measurement": "TopFlash luciferase reporter activity", "setting": "[4]", "result": "no significant effect; also recorded: insignificant differences"}, {"measurement": "active-β-catenin, Western blot", "setting": "hepatocytes [5]", "result": "notable increase"}]}
